Measured values from publication PMC7334220, “Diamond Blackfan anemia is mediated by hyperactive Nemo-like kinase” (Nature Communications, 2020).
Where “and” joins values, the source holds several entries; their conditions need not be identical. Equal values may be shown once.

Assays:
p38 [1] = assay: Reported p38 inhibition (literature / PubChem); format: biochemical; details: 850nM vs 440nM; rebuttal letter
Description: But as p38 can phosphorylate NLK, Myb and Raptor in vitro, we performed a series of experiments that indicate NLK-associated p38 is not contributing to substrate phosphorylation. We determined the IC50 values of a panel of eight p38 inhibitors against p38 and NLK in our in vitro kinase assays. For comparison, reported IC50 values from bioassay results submitted to the National Center for Biotechnology Information PubChem Database were tabulated.

DBA patient HSPCs = assay: Erythroid differentiation (CD235+) of CD34+ HSPCs from DBA patient bone marrow; format: cell-based, human; details: 5 µM SD208; three DBA patients
Procedure: Cells were counted and assessed for cell surface expression of CD235. b Lin-Kit^+ hematopoietic progenitors were obtained from three mouse embryos expressing tetracycline-inducible shRNA against RPS19 at day E14.5 or three untreated mice, and thee mature RPL11^+/+ or three mature RPL11^+/lox mice treated with tamoxifen for eight weeks. […] Values were expressed as a percentage relative to untreated controls. c, d Intracellular phosphorylation of NLK at Thr298 was determined by capillary electrophoresis using the Peggy Sue™ Automated Western blotting platform. After lysis, 4 µg of protein from the CD235^+ population was probed against pThr298-NLK and normalized to GAPDH. […] After counting the total cell population, the ratio of CD235^+ erythroblasts was determined by flow cytometry and number of CD235^+ erythroblasts calculated. This was expressed as a percentage of the average number of erythroid cells present in untreated healthy controls. f NLK phosphorylation was assessed by capillary electrophoresis as above. Bars represent means ± SD with individual data points overlaid. […] Statistics: two-tailed Student’s t test, significant *p < 0.05. Also see Supplementary Fig. 8. Source data are provided as a Source Data file. […]

p38 [2] = target: T1, p38 (Homo sapiens, UniProt Q16539); assay: p38 in vitro kinase assay; format: biochemical; details: Supplementary Fig. 4b; read-out: observed IC50 against p38
T1 construct: endogenous in cells; host or cells: Kp53A1 cells stimulated with IL-3, IL-6, SCF and Epo; immunoprecipitated with a p38 antibody
Procedure: Equivalent protein was loaded between samples. b—blue Transduced progenitors were differentiated for 15 days and sorted for surface expression of CD235 + , CD41 + and CD11b + population NLK mRNA was assessed by qRT-PCR. c Control and shRPS19-transduced CB progenitors were differentiated for 10 days prior to separation into CD71^+ and CD71^- populations and assessed for pThr298-NLK phosphorylation by Western blot analysis. d—purple CB CD34 + progenitors were transduced with shRNA against luciferase (shLuc) or RPS19 (shRPS19) along with CFP-NLK and YFP-NLK and differentiated for 10 days. NLK dimerization was quantified by FRET. e—left panel NLK was immunoprecipitated from transduced differentiating CD71^+ and CD71^- populations after 10 days, and incubated in the presence of ATP, Mg^2+ and dephosphorylated NLK (i orange), c-Myb (ii—blue) and Raptor (iii—green) for 30 min at 37 °C. Phosphorylation was detected by a combination of anti^-phosphoserine-HRP and anti-phosphothreonine-HRP antibodies, or mouse anti-phosphoserine and anti-mouse-HRP antibodies. e—right panel For comparison, NLK in vitro kinase activity was assessed from CD235^+, CD41^+ and CD11b^+ populations enriched after identical treatments. f A panel of eight small molecule p38 inhibitors were titrated into in vitro kinase assays in the presence of activated NLK or p38 from stimulated Kp53A1 cells. […]

[3] = tested on: RPL11-insufficient Lin-Kit+ HSPCs; assay: Erythroid differentiation of Lin-Kit+ HSPCs from tamoxifen-treated RPL11+/lox mice; format: cell-based, mouse; details: SD208; 8 days; three RPL11+/lox mice; without SD208 31.2, 26.4, 18.6%; Fig. 8b
Procedure: Cells were counted and assessed for cell surface expression of CD235. b Lin-Kit^+ hematopoietic progenitors were obtained from three mouse embryos expressing tetracycline-inducible shRNA against RPS19 at day E14.5 or three untreated mice, and thee mature RPL11^+/+ or three mature RPL11^+/lox mice treated with tamoxifen for eight weeks. […] Values were expressed as a percentage relative to untreated controls. c, d Intracellular phosphorylation of NLK at […] was determined by capillary electrophoresis using the Peggy SueTM Automated Western blotting platform. […] After counting the total cell population, the ratio of CD235^+ erythroblasts was determined by flow cytometry and number of CD235^+ erythroblasts calculated. This was expressed as a percentage of the average number of erythroid cells present in untreated healthy controls. f NLK phosphorylation was assessed by capillary electrophoresis as above. Bars represent means ± SD with individual data points overlaid. […] Statistics: two-tailed Student's t test, significant *p < 0.05. Also see Supplementary Fig. 8. Source data are provided as a Source Data file. Three mature RPL11^+/lox mice were treated with tamoxifen for eight weeks to induce heterozygous deletion of RPL11. As controls, three different RPL11^+/+ littermates of the same mouse strain were treated with tamoxifen.

T1 sequence (Q16539 2-360 limits assumed): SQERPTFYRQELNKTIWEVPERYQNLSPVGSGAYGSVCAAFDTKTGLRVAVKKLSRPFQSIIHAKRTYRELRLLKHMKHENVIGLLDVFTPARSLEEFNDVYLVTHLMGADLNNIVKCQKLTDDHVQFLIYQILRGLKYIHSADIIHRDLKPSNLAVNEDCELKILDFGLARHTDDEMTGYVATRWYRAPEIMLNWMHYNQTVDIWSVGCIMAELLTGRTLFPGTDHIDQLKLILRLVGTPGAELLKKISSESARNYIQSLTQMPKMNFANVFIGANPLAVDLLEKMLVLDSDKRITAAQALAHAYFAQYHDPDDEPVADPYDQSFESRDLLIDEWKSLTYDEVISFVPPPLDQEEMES

Compound: Fc1ccc(Cl)cc1-c1nc(Nc2ccncc2)c2nccnc2n1 [SD208]
- reported p38 IC50 compared to observed NLK IC50 (p38 [1]): 2 fold
- mean increase of CD235+ erythroblast differentiation with SD208 (DBA patient HSPCs): 2.11 fold
- IC50 (p38 [2]): 0.91 µM
- erythropoiesis, % of controls [3]: 57.3% and 56.8% and 50.3%
